Test results published in ChEMBL document CHEMBL1201862, “PubChem BioAssay data set” (2004).
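How tested: cells in 96-well plates exposed to compound for 48 hours at five concentrations. GI50 marks 50% less growth.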 The source made the active and inactive calls. Cut-off read from the data, not from the text of the source: active = GI50 up to about 1.1 µM and inactive = higher.

Experiments:
Experiment in all cases: growth of human tumour cells (NCI), 48 h
[1] = system: DMS-273
[2] = system: A549
[3] = system: ACHN
[4] = system: HCT-116
[5] = system: XF498
[6] = system: SF-295
[7] = system: K562
[8] = system: MOLT-4
[9] = system: 786-0
[10] = system: OVCAR-8
[11] = system: Malme-3M
[12] = system: M19-MEL
[13] = system: DLD-1
[14] = system: DMS-114
[15] = system: SK-OV-3
[16] = system: TK-10
[17] = system: NCI-H23
[18] = system: NCI-H460
[19] = system: UO-31
[20] = system: M14
[21] = system: NCI-H522
[22] = system: RPMI-8226
[23] = system: KM12
[24] = system: UACC-62
[25] = system: SK-MEL-2
[26] = system: OVCAR-3
[27] = system: HT-29
[28] = system: SN12C
[29] = system: SF-539
[30] = system: HOP-62
[31] = system: UACC-257
[32] = system: HCT-15
[33] = system: LOX IMVI
[34] = system: EKVX
[35] = system: NCI-H226
[36] = system: SK-MEL-28
[37] = system: HOP-18
[38] = system: SW-620
[39] = system: SNB-19
[40] = system: SK-MEL-5
[41] = system: COLO 205
[42] = system: IGROV-1
[43] = system: CCRF-CEM
[44] = system: HL-60
[45] = system: U-251
[46] = system: RXF 393
[47] = system: SNB-78
[48] = system: KM-20L2
[49] = system: HCC 2998
[50] = system: HOP-92
[51] = system: OVCAR-4
[52] = system: SF-268
[53] = system: LXFL 529
[54] = system: SR
[55] = system: SNB-75
[56] = system: A498
[57] = system: MDA-MB-231
[58] = system: CAKI-1
[59] = system: BT-549
[60] = system: OVCAR-5
[61] = system: MDA-N
[62] = system: Hs-578T
[63] = system: MCF7
[64] = system: DU-145
[65] = system: MDA-MB-435
[66] = system: NCI/ADR-RES
[67] = system: PC-3
[68] = system: T47D

Structure (SMILES): O=c1ccc2ccc(O)c3c4c(O)ccc5ccc(=O)c(c1c23)c54
- GI50 [1]: 1.95 µM (inactive)
- GI50 [2]: 2.95 µM (inactive)
- GI50 [3]: 2.69 µM (inactive)
- GI50 [4]: 1.43 µM (inactive)
- GI50 [5]: 1.79 µM (inactive)
- GI50 [6]: 2.69 µM (inactive)
- GI50 [7]: 2.07 µM (inactive)
- GI50 [8]: 2.11 µM (inactive)
- GI50 [9]: 2.31 µM (inactive)
- GI50 [10]: 1.46 µM (inactive)
- GI50 [11]: 0.371 µM (active)
- GI50 [12]: 0.69 µM (active)
- GI50 [13]: 1.64 µM (inactive)
- GI50 [14]: 1.51 µM (inactive)
- GI50 [15]: 4.02 µM (inactive)
- GI50 [16]: 2.67 µM (inactive)
- GI50 [17]: 1.66 µM (inactive)
- GI50 [18]: 3.56 µM (inactive)
- GI50 [19]: 1.65 µM (inactive)
- GI50 [20]: 1.6 µM (inactive)
- GI50 [21]: 1.45 µM (inactive)
- GI50 [22]: 2.9 µM (inactive)
- GI50 [23]: 1.24 µM (inactive)
- GI50 [24]: 0.382 µM (active)
- GI50 [25]: 1.45 µM (inactive)
- GI50 [26]: 0.964 µM (active)
- GI50 [27]: 4.27 µM (inactive)
- GI50 [28]: 2.08 µM (inactive)
- GI50 [29]: 1.69 µM (inactive)
- GI50 [30]: 2.72 µM (inactive)
- GI50 [31]: 1.49 µM (inactive)
- GI50 [32]: 1.26 µM
- GI50 [33]: 1.18 µM (inactive)
- GI50 [34]: 3.38 µM (inactive)
- GI50 [35]: 2.04 µM (inactive)
- GI50 [36]: 1.14 µM (inactive)
- GI50 [37]: 2.26 µM (inactive)
- GI50 [38]: 2.07 µM (inactive)
- GI50 [39]: 2.18 µM (inactive)
- GI50 [40]: 1.14 µM (inactive)
- GI50 [41]: 1.91 µM (inactive)
- GI50 [42]: 1.82 µM (inactive)
- GI50 [43]: 0.71 µM (active)
- GI50 [44]: 1.09 µM (active)
- GI50 [45]: 1.29 µM (inactive)
- GI50 [46]: 1.17 µM (inactive)

Structure (SMILES): O=C1c2ccccc2N2OC3(N4CCCC4)CCCCC3C12c1ccccc1 (stereo not drawn)
- GI50 [47]: 16.6 µM (inactive)
- GI50 [48]: 43.5 µM (inactive)
- GI50 [1]: 17 µM (inactive)
- GI50 [2]: 21 µM (inactive)
- GI50 [3]: 18.5 µM (inactive)
- GI50 [4]: 14.4 µM (inactive)
- GI50 [5]: 22.4 µM (inactive)
- GI50 [6]: 18.3 µM (inactive)
- GI50 [49]: 53 µM (inactive)
- GI50 [7]: 19.5 µM (inactive)
- GI50 [8]: 35.7 µM (inactive)
- GI50 [9]: 17.7 µM (inactive)
- GI50 [10]: 17.5 µM (inactive)
- GI50 [11]: 18.8 µM (inactive)
- GI50 [12]: 10.1 µM (inactive)
- GI50 [13]: 20 µM (inactive)
- GI50 [14]: 15.2 µM (inactive)
- GI50 [15]: > 100 µM (inactive)
- GI50 [50]: 16.1 µM (inactive)
- GI50 [17]: 20.1 µM (inactive)
- GI50 [51]: 14.5 µM (inactive)
- GI50 [19]: 39.7 µM (inactive)
- GI50 [20]: 17.6 µM (inactive)
- GI50 [21]: 14.9 µM (inactive)
- GI50 [22]: > 100 µM (inactive)
- GI50 [24]: 16.4 µM (inactive)
- GI50 [27]: 21.8 µM (inactive)
- GI50 [28]: 16.9 µM (inactive)
- GI50 [29]: 31.4 µM (inactive)
- GI50 [30]: > 100 µM (inactive)
- GI50 [52]: 16.6 µM (inactive)
- GI50 [31]: 19.3 µM (inactive)
- GI50 [53]: 14.5 µM (inactive)
- GI50 [32]: 26.4 µM
- GI50 [34]: 69.8 µM (inactive)
- GI50 [35]: 37.3 µM (inactive)
- GI50 [36]: 25.4 µM (inactive)
- GI50 [54]: 33.8 µM (inactive)
- GI50 [55]: 34.1 µM (inactive)
- GI50 [37]: > 100 µM (inactive)
- GI50 [38]: 17.7 µM (inactive)
- GI50 [39]: > 100 µM (inactive)
- GI50 [40]: 15.1 µM (inactive)
- GI50 [56]: > 100 µM (inactive)
- GI50 [41]: 17.3 µM (inactive)
- GI50 [42]: 42 µM (inactive)
- GI50 [43]: 18.7 µM (inactive)
- GI50 [44]: 19.1 µM (inactive)
- GI50 [45]: 28.1 µM (inactive)
- GI50 [46]: 17.5 µM (inactive)

Structure (SMILES): Cc1nc(Nc2ccc(Cl)c(Cl)c2)sc1C(/C=C/c1ccc2c(c1)OCO2)=N/Nc1ccc([N+](=O)[O-])cc1[N+](=O)[O-]
- GI50 [57]: > 100 µM (inactive)
- GI50 [47]: 2.27 µM (inactive)
- GI50 [48]: > 100 µM (inactive)
- GI50 [1]: 32 µM (inactive)
- GI50 [2]: > 100 µM (inactive)
- GI50 [3]: > 92 µM (inactive)
- GI50 [4]: 56.5 µM (inactive)
- GI50 [5]: 13.9 µM (inactive)
- GI50 [6]: 53.3 µM (inactive)
- GI50 [49]: > 78.5 µM (inactive)
- GI50 [7]: > 80.4 µM (inactive)
- GI50 [58]: > 46.5 µM (inactive)
- GI50 [8]: > 56.2 µM (inactive)
- GI50 [9]: 20.1 µM (inactive)
- GI50 [59]: > 100 µM (inactive)
- GI50 [10]: > 100 µM (inactive)
- GI50 [11]: > 100 µM (inactive)
- GI50 [12]: > 100 µM (inactive)
- GI50 [13]: > 100 µM (inactive)
- GI50 [60]: > 100 µM (inactive)
- GI50 [14]: 51.8 µM (inactive)
- GI50 [15]: > 91.8 µM (inactive)
- GI50 [61]: > 100 µM (inactive)
- GI50 [16]: 66.5 µM (inactive)
- GI50 [50]: 85.1 µM (inactive)
- GI50 [62]: > 74.5 µM (inactive)
- GI50 [63]: > 100 µM (inactive)
- GI50 [17]: 67.3 µM (inactive)
- GI50 [18]: > 100 µM (inactive)
- GI50 [51]: > 100 µM (inactive)
- GI50 [19]: 78.2 µM (inactive)
- GI50 [64]: > 100 µM (inactive)
- GI50 [20]: 61.7 µM (inactive)
- GI50 [21]: 61 µM (inactive)
- GI50 [22]: > 82.2 µM (inactive)
- GI50 [23]: > 88.7 µM (inactive)
- GI50 [65]: > 100 µM (inactive)
- GI50 [24]: > 61.9 µM (inactive)
- GI50 [25]: > 100 µM (inactive)
- GI50 [26]: > 100 µM (inactive)
- GI50 [27]: > 100 µM (inactive)
- GI50 [66]: > 100 µM (inactive)
- GI50 [28]: > 100 µM (inactive)
- GI50 [29]: 43.8 µM (inactive)
- GI50 [30]: 59.8 µM (inactive)
- GI50 [52]: > 100 µM (inactive)
- GI50 [31]: > 100 µM (inactive)
- GI50 [67]: > 100 µM (inactive)
- GI50 [53]: > 68.5 µM (inactive)
- GI50 [32]: > 97.1 µM
- GI50 [33]: 67 µM (inactive)
- GI50 [34]: > 100 µM (inactive)
- GI50 [35]: > 59 µM (inactive)
- GI50 [36]: > 100 µM (inactive)
- GI50 [54]: > 91.4 µM (inactive)
- GI50 [55]: 13.2 µM (inactive)
- GI50 [38]: > 100 µM (inactive)
- GI50 [39]: 48.1 µM (inactive)
- GI50 [40]: > 82.8 µM (inactive)
- GI50 [56]: > 50.9 µM (inactive)
- GI50 [41]: > 100 µM (inactive)
- GI50 [42]: > 100 µM (inactive)
- GI50 [43]: 80.9 µM (inactive)
- GI50 [44]: > 79.6 µM (inactive)
- GI50 [45]: 41.1 µM (inactive)
- GI50 [46]: 27.2 µM (inactive)
- GI50 [68]: > 100 µM (inactive)
